Test results published in patent US10494341B2, “Compound containing indoleacetic acid core structure and use thereof” (Beijing An Jian Xi Bio-Medical Technology Co., Ltd., priority 2015, dated 2019).

How the values were obtained:
[1] = system: SW480 cells; assay: Degradation of the compound in cells (HPLC); format: in vitro ADME; settings: 10 μM
Method: Determination of the stability of the compound: (1) degradation of the compound in plasma: Compound a (10 μM) dissolved in DMSO was cultured with 10% bovine serum medium (5 mL) at 37° C. 200 μL of medium was collected at the time points of 1, 3, 6, 12 and 24 hours, respectively, added with equal volume of acetonitrile for reaction, and subjected to high speed centrifugation (13,000 rpm) for 5 minutes. The level of degradation of the compound was determined by HPLC. (2) Degradation of the compound in cells: the compound a dissolved in DMSO was added at a final concentration of 10 μM to a 6-well culture dish containing SW480 cells and incubated in carbon dioxide incubator. The cells were collected at the time points of 1, 3, 6, 12, and 24 hours, respectively, washed fully, then extracted with 0.5 mL of acetonitrile, and centrifuged at high speed (12,000 rpm) for 5 minutes. The level of degradation of the compound in the organic phase was determined by HPLC.

[2] = system: normal mouse intestinal mucosa cells; assay: Cisplatin damage of normal cells with compound (LDH); format: cell-based; settings: all tested concentrations except the high concentration, 24 hours
Method: (§1) The mechanism of compounds enhancing killing effect of chemotherapeutic agents on tumor cells while protecting normal cells: mouse colon cancer cells (MCA-38) and primarily-cultured normal mouse intestinal mucosa cells were cultured in a 96-well plate, respectively. 24 hours later, various concentrations (10, 30 and 90 μM) of compound b was respectively added to the cell culture medium, and incubated for 24 hours. LDH was used to detect the damage of the cells, and the cells were collected and extracted for protein. The expression levels of adenosine triphosphate-binding transporter (ABCG2) and the cell cycle-dependent protein […] (p21) were detected by immunoblotting (performed according to the instructions provided by the manufacturer). […] ABCG2 is a transporter, and can pump anticancer drugs out of the cells. […] The high expression of p21 allows the cells to be in non-dividing quiescent phase, so that cells are not sensitive to chemotherapeutic drugs or injury in other forms. The compounds of the present invention make these proteins expressed differentially in normal tissues and tumor tissues, which is one of the reasons for selectively protecting normal tissues and enhancing the sensitivity of tumors to treatment.

[3] = system: adenosine triphosphate-binding transporter (ABCG2); assay: Expression of ABCG2 by immunoblotting; format: cell-based, mouse
Method: as §1

[4] = system: cell cycle-dependent protein kinase (p21); assay: Expression of p21 by immunoblotting; format: cell-based, mouse
Method: as §1

[5] = system: mouse colon cancer cells (MCA-38); assay: Killing effect of cisplatin on tumor cells with compound (LDH); format: cell-based; settings: MCA-38, 10, 30 and 90 μM, 24 hours
Method: as §1

[6] = normal mouse intestinal mucosa cells

SMILES | compound hydrolyzed in cells ([1]; within 3 hours) | compound hydrolyzed in cells ([1]; within 24 hours) | cisplatin damage of normal intestinal mucosa cells [2] | expression of ABCG2 in tumor cells ([3]; MCA-38 cells) | expression of ABCG2 in normal cells [3, 6] | expression of p21 in tumor cells ([4]; MCA-38 cells) | expression of p21 in normal intestinal mucosa cells [4, 6] | killing effect of cisplatin on colon cancer cells [5]
COC1=C(OC)C(=O)C(CCCCCCCCCCOC(=O)Cc2c(C)n(C(=O)c3ccc(Cl)cc3)c3cc(OC)ccc23)=C(C)C1=O [compound a] | ~80% | completely hydrolyzed | – | – | – | – | – | –
COc1ccc2c(CC(=O)OCCCCCCCCCCc3c(C)c(O)c(OC)c(OC)c3O)c(C)n(C(=O)c3ccc(Cl)cc3)c2c1 [compound b] | – | – | significantly inhibit cisplatin from damaging normal intestinal mucosa cells | significantly inhibit expression | no influence | no influence | significantly enhance the expression of p21 | significantly enhances the killing effect of cisplatin
